In the data set the test system is rodent lifetime carcinogenesis bioassay, tumor incidence TD50. The data set is described as follows: chronic cancer bioassays in animals – CPDB, compiled studies (AID 1745844).

Active and inactive are the calls of the source. No rule for the calls is given here.

In the case of `O=CNNc1nc(-c2ccc([N+](=O)[O-])o2)cs1`, the TD50 runs as follows: (hamster, strain Syrian Golden, males, in feed, site: forestomach, lesion: squamous-cell papilloma, dosed 48 weeks, study length 70 weeks) 25.1 mg/kg/day; (hamster, strain Syrian Golden, males, in feed, site: urinary bladder, lesion: transitional-cell carcinoma, dosed 48 weeks, study length 70 weeks) 16.6 mg/kg/day; (mouse, strain Swiss, females, in feed, site: all sites, lesion: leukemia, dosed 33 weeks, study length 52 weeks) 25.6 mg/kg/day; (mouse, strain Swiss, females, in feed, site: all sites, lesion: lymphocytic leukemia, dosed 33 weeks, study length 52 weeks) 11.4 mg/kg/day; (mouse, strain Swiss, females, in feed, site: any site (literature study), lesion: several types, types named in the paper, dosed 33 weeks, study length 52 weeks) 2.42 mg/kg/day; (mouse, strain Swiss, females, in feed, site: forestomach, lesion: papilloma, dosed 33 weeks, study length 52 weeks) 13.8 mg/kg/day. Further, the TD50 is 8.85 mg/kg/day (mouse, strain Swiss, females, in feed, site: forestomach, lesion: squamous-cell papilloma, dosed 33 weeks, study length 52 weeks); 67.1 mg/kg/day (mouse, strain Swiss, females, in feed, site: lung, lesion: alveolar-cell carcinoma, dosed 33 weeks, study length 52 weeks); 17.5 mg/kg/day (rat, strain Buffalo, females, in feed, site: kidney, lesion: several types, types named in the paper, dosed 46 weeks, study length 64 weeks); 98.6 mg/kg/day (rat, strain Buffalo, females, in feed, site: kidney, lesion: tubular adenoma, dosed 46 weeks, study length 64 weeks); 44.1 mg/kg/day (rat, strain Buffalo, females, in feed, site: kidney, lesion: tubular-cell adenocarcinoma, dosed 46 weeks, study length 64 weeks); 39.1 mg/kg/day (rat, strain Buffalo, females, in feed, site: liver, lesion: cystadenoma, dosed 46 weeks, study length 64 weeks). For the same molecule, the TD50 by setting is: (rat, strain Buffalo, females, in feed, site: mammary gland, lesion: adenocarcinoma, dosed 46 weeks, study length 64 weeks) 13.1 mg/kg/day; (rat, strain Buffalo, females, in feed, site: mammary gland, lesion: adenofibroma, dosed 46 weeks, study length 64 weeks) 80.5 mg/kg/day; (rat, strain Buffalo, females, in feed, site: mammary gland, lesion: several types, types named in the paper, dosed 46 weeks, study length 64 weeks) 5.54 mg/kg/day; (rat, strain Holtzman albino (Sprague-Dawley derived), females, in feed, site: cecum, lesion: adenocarcinoma, dosed 44 weeks, study length 60 weeks) 210 mg/kg/day; (rat, strain Holtzman albino (Sprague-Dawley derived), females, in feed, site: ear canal, lesion: squamous-cell carcinoma, dosed 44 weeks, study length 60 weeks) 100 mg/kg/day; (rat, strain Holtzman albino (Sprague-Dawley derived), females, in feed, site: kidney, lesion: adenoma, dosed 44 weeks, study length 60 weeks) 17.6 mg/kg/day. Also, the TD50 is 78.5 mg/kg/day (rat, strain Holtzman albino (Sprague-Dawley derived), females, in feed, site: kidney, lesion: carcinoma, dosed 44 weeks, study length 60 weeks); 428 mg/kg/day (inactive) (rat, strain Holtzman albino (Sprague-Dawley derived), females, in feed, site: liver, lesion: hemangioendothelial sarcoma, dosed 44 weeks, study length 60 weeks); 5.5 mg/kg/day (rat, strain Holtzman albino (Sprague-Dawley derived), females, in feed, site: mammary tissue, wider than the gland, lesion: one or several types, types not named, dosed 44 weeks, study length 60 weeks); 78.5 mg/kg/day (rat, strain Holtzman albino (Sprague-Dawley derived), females, in feed, site: small intestine, lesion: adenocarcinoma, dosed 44 weeks, study length 60 weeks); 184 mg/kg/day (rat, strain Sprague-Dawley, females, in feed, site: all sites, lesion: lymphoblastic lymphoma, dosed 45 weeks, study length 75 weeks); 3.79 mg/kg/day (rat, strain Sprague-Dawley, females, in feed, site: any site (literature study), lesion: several types, types named in the paper, dosed 45 weeks, study length 75 weeks). For the same molecule, the TD50 reads like this: (rat, strain Sprague-Dawley, females, in feed, site: forestomach, lesion: squamous-cell papilloma, dosed 45 weeks, study length 75 weeks) 65.4 mg/kg/day; (rat, strain Sprague-Dawley, females, in feed, site: kidney/pelvis, lesion: transitional-cell carcinoma, dosed 45 weeks, study length 75 weeks) 137 mg/kg/day; (rat, strain Sprague-Dawley, females, in feed, site: kidney, lesion: renal-cell carcinoma, dosed 45 weeks, study length 75 weeks) 65.4 mg/kg/day; (rat, strain Sprague-Dawley, females, in feed, site: kidney, lesion: several types, types named in the paper, dosed 46 weeks, study length 64 weeks) 9.96 mg/kg/day; (rat, strain Sprague-Dawley, females, in feed, site: kidney, lesion: tubular adenoma, dosed 46 weeks, study length 64 weeks) 50.7 mg/kg/day; (rat, strain Sprague-Dawley, females, in feed, site: kidney, lesion: tubular-cell adenocarcinoma, dosed 46 weeks, study length 64 weeks) 33.9 mg/kg/day. The TD50 by setting is: (rat, strain Sprague-Dawley, females, in feed, site: liver, lesion: cystadenoma, dosed 46 weeks, study length 64 weeks) 43.9 mg/kg/day; (rat, strain Sprague-Dawley, females, in feed, site: liver, lesion: several types, types named in the paper, dosed 46 weeks, study length 64 weeks) 30.1 mg/kg/day; (rat, strain Sprague-Dawley, females, in feed, site: mammary gland, lesion: adenocarcinoma, dosed 45 weeks, study length 75 weeks) 3.54 mg/kg/day; (rat, strain Sprague-Dawley, females, in feed, site: mammary gland, lesion: adenocarcinoma, dosed 46 weeks, study length 64 weeks) 19.5 mg/kg/day; (rat, strain Sprague-Dawley, females, in feed, site: mammary gland, lesion: adenofibroma, dosed 46 weeks, study length 64 weeks) 52.8 mg/kg/day; (rat, strain Sprague-Dawley, females, in feed, site: mammary gland, lesion: several types, types named in the paper, dosed 46 weeks, study length 64 weeks) 5.85 mg/kg/day. Further, the TD50 is, setting by setting: (rat, strain Sprague-Dawley, males, in feed, site: kidney/pelvis, lesion: transitional-cell carcinoma, dosed 46 weeks, study length 64 weeks) 69.9 mg/kg/day; (rat, strain Sprague-Dawley, males, in feed, site: kidney, lesion: several types, types named in the paper, dosed 46 weeks, study length 64 weeks) 5.82 mg/kg/day; (rat, strain Sprague-Dawley, males, in feed, site: kidney, lesion: tubular adenoma, dosed 46 weeks, study length 64 weeks) 47.6 mg/kg/day; (rat, strain Sprague-Dawley, males, in feed, site: kidney, lesion: tubular-cell adenocarcinoma, dosed 46 weeks, study length 64 weeks) 19.3 mg/kg/day; (rat, strain Sprague-Dawley, males, in feed, site: liver, lesion: cystadenoma, dosed 46 weeks, study length 64 weeks) 35.3 mg/kg/day; (rat, strain Sprague-Dawley, males, in feed, site: mammary gland, lesion: adenofibroma, dosed 46 weeks, study length 64 weeks) 46.2 mg/kg/day. Further, the carcinogen call (rat, strain Sprague-Dawley, females, in feed, site: liver, lesion: one or several types, types not named, dosed 45 weeks, study length 75 weeks) was “negative (inactive)”.

Consider `CCN(C)N=O`, for which the TD50 runs as follows: (rat, strain Fischer 344, females, in drinking water, site: all sites, lesion: one or several types, types not named, dosed 30 weeks, study length 115 weeks) 0.0386 mg/kg/day; (rat, strain Fischer 344, males, by gavage, site: liver, lesion: hemangiosarcoma, dosed 30 weeks, study length 55 weeks) 0.12 mg/kg/day; (rat, strain Fischer 344, males, by gavage, site: liver, lesion: hepatocellular tumor, benign, dosed 30 weeks, study length 55 weeks) 0.0503 mg/kg/day; (rat, strain Fischer 344, males, by gavage, site: liver, lesion: several types, types named in the paper, dosed 30 weeks, study length 55 weeks) 0.0503 mg/kg/day; (rat, strain Fischer 344, males, by gavage, site: lung, lesion: alveolar/bronchiolar adenoma, dosed 30 weeks, study length 55 weeks) 0.242 mg/kg/day; (rat, strain Fischer 344, males, by gavage, site: nasal mucosa, lesion: one or several types, types not named, dosed 30 weeks, study length 55 weeks) 0.201 mg/kg/day.

As to `CN(CC(O)CO)N=O` (centres undefined), the TD50 was 0.509 mg/kg/day (hamster, strain Syrian Golden, females, by gavage, site: any site (literature study), lesion: several types, types named in the paper, dosed 41 weeks, study length 81 weeks); 12.7 mg/kg/day (inactive) (hamster, strain Syrian Golden, females, by gavage, site: liver, lesion: all vascular tumors, dosed 41 weeks, study length 81 weeks); 1.51 mg/kg/day (hamster, strain Syrian Golden, females, by gavage, site: nasal mucosa, lesion: carcinoma, dosed 41 weeks, study length 81 weeks); 0.94 mg/kg/day (hamster, strain Syrian Golden, females, by gavage, site: nasal mucosa, lesion: several types, types named in the paper, dosed 41 weeks, study length 81 weeks); 1.48 mg/kg/day (rat, strain Fischer 344, females, in drinking water, site: esophagus, lesion: several types, types named in the paper, dosed 40 weeks, study length 110 weeks); 3.13 mg/kg/day (rat, strain Fischer 344, females, in drinking water, site: liver, lesion: hepatocellular carcinoma, dosed 40 weeks, study length 110 weeks). In addition, the TD50 reads like this: (rat, strain Fischer 344, females, in drinking water, site: liver, lesion: neoplastic nodule, dosed 40 weeks, study length 110 weeks) 1.01 mg/kg/day; (rat, strain Fischer 344, females, in drinking water, site: liver, lesion: several types, types named in the paper, dosed 40 weeks, study length 110 weeks) 0.67 mg/kg/day; (rat, strain Fischer 344, females, in drinking water, site: lung, lesion: several types, types named in the paper, dosed 40 weeks, study length 110 weeks) 0.646 mg/kg/day; (rat, strain Fischer 344, females, in drinking water, site: nasal cavity, lesion: several types, types named in the paper, dosed 40 weeks, study length 110 weeks) 1.48 mg/kg/day.

`Nc1ccc(S(=O)(=O)c2ccc(N)cc2)cc1`: the carcinogen call runs as follows: (mouse, strain B6C3F1, females, in feed, site: any site (literature study), lesion: several types, types named in the paper, dosed 78 weeks, study length 107 weeks) “negative (inactive)”; (mouse, strain B6C3F1, males, in feed, site: any site (literature study), lesion: several types, types named in the paper, dosed 78 weeks, study length 107 weeks) “negative (inactive)”; (rat, strain Fischer 344, females, in feed, site: any site (literature study), lesion: several types, types named in the paper, dosed 78 weeks, study length 105 weeks) “negative (inactive)”. Besides, the TD50 was 50.1 mg/kg/day (rat, strain Fischer 344, males, in feed, site: all sites, lesion: lymphoma, dosed 78 weeks, study length 104 weeks); 22.4 mg/kg/day (rat, strain Fischer 344, males, in feed, site: any site (literature study), lesion: several types, types named in the paper, dosed 78 weeks, study length 104 weeks); 56.3 mg/kg/day (rat, strain Fischer 344, males, in feed, site: peritoneum, lesion: fibrosarcoma + sarcoma, NOS, dosed 78 weeks, study length 104 weeks); 148 mg/kg/day (rat, strain Fischer 344, males, in feed, site: peritoneum, lesion: fibrosarcoma, dosed 78 weeks, study length 104 weeks); 91.3 mg/kg/day (rat, strain Fischer 344, males, in feed, site: peritoneum, lesion: sarcoma, NOS, dosed 78 weeks, study length 104 weeks); 28.5 mg/kg/day (rat, strain Fischer 344, males, in feed, site: spleen, lesion: fibroma, dosed 78 weeks, study length 104 weeks). The TD50 runs as follows: (rat, strain Fischer 344, males, in feed, site: spleen, lesion: fibrosarcoma + fibroma + sarcoma, NOS, dosed 78 weeks, study length 104 weeks) 22.4 mg/kg/day; (rat, strain Fischer 344, males, in feed, site: spleen, lesion: fibrosarcoma, dosed 78 weeks, study length 104 weeks) 167 mg/kg/day; (rat, strain Fischer 344, males, in feed, site: spleen, lesion: sarcoma, NOS, dosed 78 weeks, study length 104 weeks) 170 mg/kg/day.

Turning to `FCCl`, the TD50 is, setting by setting: (rat, strain Alpk:APfSD, females, by gavage, site: stomach, lesion: carcinoma, dosed 52 weeks, study length 108 weeks) 2710 mg/kg/day; (rat, strain Alpk:APfSD, females, by gavage, site: stomach, lesion: fibrosarcoma, dosed 52 weeks, study length 108 weeks) 119 mg/kg/day; (rat, strain Alpk:APfSD, females, by gavage, site: stomach, lesion: sarcoma, dosed 52 weeks, study length 108 weeks) 2710 mg/kg/day; (rat, strain Alpk:APfSD, females, by gavage, site: stomach, lesion: several types, types named in the paper, dosed 52 weeks, study length 108 weeks) 26.5 mg/kg/day; (rat, strain Alpk:APfSD, females, by gavage, site: stomach, lesion: squamous-cell carcinoma, dosed 52 weeks, study length 108 weeks) 69.4 mg/kg/day; (rat, strain Alpk:APfSD, males, by gavage, site: stomach, lesion: fibrosarcoma, dosed 52 weeks, study length 100 weeks) 88.1 mg/kg/day. The TD50 (rat, strain Alpk:APfSD, males, by gavage, site: stomach, lesion: several types, types named in the paper, dosed 52 weeks, study length 100 weeks) is 28.5 mg/kg/day and the TD50 (rat, strain Alpk:APfSD, males, by gavage, site: stomach, lesion: squamous-cell carcinoma, dosed 52 weeks, study length 100 weeks) is 46.9 mg/kg/day.

Usually TD50 stands for the dose at which the toxic effect under study appears in half of the subjects.
